Like-named read-outs stand apart in the source and are kept apart here.
Tests used:
apyrase = test: Apyrase inhibition assay (screen for apyrase inhibitors, phosphate release read at 630 nm); assay type: biochemical; settings: inhibitor conc at 1 mM (10 μl added), 3 mM ATP, pH 6.5, room temperature 1 hr
Experimental: Apyrase inhibitors useful as enhancers of pesticidal activity are assessed using an in vitro assay. The method of Windsor, Bio Techniques 33:1024-1030 (November 2002) was used as follows
• 96 well plates were used for the assay: (Greiner bio-one: REF-655901-96 well, PS, F-bottom, Clear, Non-binding)
• Reaction Buffer: 60 mM Hepes; 3 mM MgCl2, 3 mM CaCl2) and 3 mM ATP (pH 6.5) • Development Buffer A: 2% aqueous ammonium molybdate • Development Buffer B: 11% ascorbic acid in 37.5% TCA in water • Stop buffer C: 2% trisodium citrate in 2% acetic acid solution in water
• Add 100 μl of reaction buffer to each well. • Add 10 μl of DMSO (control) or inhibitor/compound or compounds such as N1915 or orthovanadate to each well. (use inhibitor conc at 1 mM; orthovanadate at 2 mM and N1915 at 1 mM) • Add 10 μl of apyrase (concentration based on optimization—Dilute 1 U/μl enzyme to different concentrations such as 0.1 U, 0.05 U, 0.0025, 0.001 U, 0.0005 U—to find a good range) • Incubate plate at room temperature for 1 hr • Mix development buffer A and B in the ratio of 1:1.5 (just before use). • Add 50 μl of A: B mix in each well (incubate for 2 mins) • Add 50 μl of C in each well • Measure/Read Absorbance of plate @630 nm
Inhibitory data for the apyrase assay described above are provided for selected compounds in Table 3. D is inhibition of 0% to 10%, C is inhibition from 10% to 20%, B is inhibition from 20% to 30%, and A is inhibition above 30%. Blank entries signify compounds that were not tested.

[1] = tested on: Brown Rust (Puccinia recondita) on wheat; test: Greenhouse crop test: control of Brown Rust on wheat in combination with commercial fungicides; assay type: in vivo; settings: wheat JB Diego, inoculated 24 hours after treatment, evaluated at fourteen days; for Amistar (% control of the disease, compound + fungicide): with Amistar 0.04 L/ha; for Balaya (% control of the disease, compound + fungicide): with Balaya 0.25 L/ha; for Imtrex (% control of the disease, compound + fungicide): with Imtrex 0.45 L/ha; for Proline (% control of the disease, compound + fungicide): with Proline 0.15 L/ha
Experimental: In this method, exemplary compounds were evaluated for their ability to control Brown Rust (Puccinia recondita) on wheat in a controlled greenhouse environment in combination with one of four fungicides, Amistar, Imtrex, Proline or Balaya. In these studies, wheat plants (JB Diego) were used. Seeds were sown in 9 cm diameter pots to a depth of 1 to 2 cm using Petersfield potting compost (75% medium grade peat, 12% screened sterilized loam, 3% medium grade vermiculite, 10% grit (5 mm screened, lime free), 1.5 kg PG mix per m3, lime to pH5.5-6.0 and wetting agent (Vitax Ultrawet 200 ml per m3) and germinated/grown at 23 C under a 16 h day/8 h night light regime. Plants were treated two to three weeks after sowing when they were at the BBCH 11 growth stage ([…]). Wheat plants were inoculated with Puccinia triticina (Brown rust) 24 hours after treatment. A track sprayer was used to treat the plants with the mixture of commercial fungicide and test compound using a water volume of 200 L/ha. Four replicates were used for each combination of fungicide, pathogen and test compound. Each plant was evaluated at fourteen days (once the disease symptoms were fully expressed) for % control of the disease. Appropriate controls were used for all experiments, including an ‘inoculation check’ wherein plants were inoculated with their specific pathogen to assess disease levels. Also, each commercial fungicide was tested on its own as a part of each treatment, this being benchmark against which the experimental compounds were evaluated. […] That is, the present compounds, although not fungicidal by themselves, enhance the activity of fungicides, thus the enhancer compounds work synergistically in combination with fungicides to control disease. • Amistar (0.04 L/ha) • Imtrex (0.45 L/ha) • Proline (0.15 L/ha) • Balaya (0.25 L/ha)

[2] = tested on: Amaranthus retroflexus (pigweed); test: Enhancement of herbicide activity: pre-emergence Amaranthus kill with metribuzin; assay type: in vivo; settings: Amaranthus retroflexus
Experimental: Specifically, Amaranthus retroflexus (pigweed) was treated pre-emergence with metribuzin alone or in combination with an enhancer compound disclosed herein. Fifteen seeds of Amaranthus retroflexus were sown in soil in each pot and then sprayed with a mixture of metribuzin at the appropriate rate shown in Table 5 and the compound of this invention at 100 g/ha using a track sprayer at a water volume of 200 L/hectare. Small amounts of acetone were used to aid solubility. The pots were watered immediately after sowing and treatment and then allowed to stand in a glasshouse. Assessment of kill was made seven and fourteen days after treatment. The test included four replicates for each treatment and the control.

Compound	Inhibition (apyrase)	other results
Cc1ccc(C)c(NS(=O)(=O)c2ccc(-c3ccccc3)cc2)c1 [Compound A-5, N-(2,5-dimethylphenyl)-[1,1′-biphenyl]-4-sulfonamide]	A (A is inhibition above 30%)	Amistar (% control of the disease, compound + fungicide) [1]: 89.2%; Balaya (% control of the disease, compound + fungicide) [1]: 13.0%; Imtrex (% control of the disease, compound + fungicide) [1]: 24.3%; Proline (% control of the disease, compound + fungicide) [1]: 15.1%
Cc1ccccc1NS(=O)(=O)c1ccc(-c2ccccc2)cc1 [Compound A-9, N-(o-tolyl)-[1,1′-biphenyl]-4-sulfonamide]	A (A is inhibition above 30%)	Amistar (% control of the disease, compound + fungicide) [1]: 65.5%; Balaya (% control of the disease, compound + fungicide) [1]: 54.9%; Imtrex (% control of the disease, compound + fungicide) [1]: −13.9%; Proline (% control of the disease, compound + fungicide) [1]: 12.4%
CN(c1ccccc1)S(=O)(=O)c1ccc(-c2ccccc2)cc1 [Compound A-10, N-methyl-N-phenyl-[1,1′-biphenyl]-4-sulfonamide]	A (A is inhibition above 30%)	Amistar (% control of the disease, compound + fungicide) [1]: 87.4%; Balaya (% control of the disease, compound + fungicide) [1]: 56.5%; Imtrex (% control of the disease, compound + fungicide) [1]: 15.0%; Proline (% control of the disease, compound + fungicide) [1]: 4.2%
CCCc1ccc(S(=O)(=O)Nc2cc(OC)c(OC)cc2C(=O)OC)cc1 [Compound A-96, methyl 4,5-dimethoxy-2-((4-propylphenyl)sulfonamido) benzoate]	C (C is inhibition from 10% to 20%)	–
CCCc1ccc(S(=O)(=O)Nc2ccc(S(=O)(=O)N(C)C)cc2)cc1 [Compound A-97, N,N-dimethyl-4-((4-propylphenyl)sulfonamido) benzenesulfonamide]	C (C is inhibition from 10% to 20%)	–
Cc1cccc(NS(=O)(=O)c2ccc(NC(=O)Nc3ccc([N+](=O)[O-])cc3)cc2)c1 [Compound A-98, 4-(3-(4-nitrophenyl)ureido)-N-(m-tolyl)benzenesulfonamide]	A (A is inhibition above 30%)	–
COc1ccccc1Oc1ccc(S(=O)(=O)Nc2cccc(C)c2)cc1 [Compound A-100, 4-(2-methoxyphenoxy)-N-(m-tolyl)benzenesulfonamide]	D (D is inhibition of 0% to 10%)	–
Cc1cccc(NS(=O)(=O)c2ccc(OCC(=O)O)cc2)c1 [Compound A-101, 2-(4-(N-(m-tolyl)sulfamoyl)phenoxy) acedtic acid]	B (B is inhibition from 20% to 30%)	–
CCCc1ccc(S(=O)(=O)Nc2ccc(Cl)c(C(=O)O)c2)cc1 [Compound A-102, 2-chloro-5-((4-propylphenyl)sulfonamido) benzoic acid]	D (D is inhibition of 0% to 10%)	–
CCCc1ccc(S(=O)(=O)Nc2ccc(C)c(S(N)(=O)=O)c2)cc1 [Compound A-104, N-(4-methyl-3-sulfamoylphenyl)-4-propylbenzenesulfonamide]	D (D is inhibition of 0% to 10%)	–
O=S(=O)(c1ccc(-c2ccccc2)cc1)N1CCCSCC1 [Compound A-106, 4-([1,1′-biphenyl]-4-ylsulfonyl)-1,4-thiazepane]	D (D is inhibition of 0% to 10%)	–
CCCc1ccc(S(=O)(=O)Nc2ccccc2-c2nncn2C)cc1 [Compound A-107, N-(2-(4-methyl-4H-1,2,4-triazol-3-yl)phenyl)-4-propylbenzenesulfonamide]	C (C is inhibition from 10% to 20%)	–
CCCc1ccc(S(=O)(=O)Nc2ccccc2-n2cnnn2)cc1 [Compound A-109, N-(2-(1H-tetrazol-1-yl)phenyl)-4-propylbenzenesulfonamide]	C (C is inhibition from 10% to 20%)	–
CCCc1ccc(S(=O)(=O)Nc2cccc(CN3CCOC3=O)c2)cc1 [Compound A-110, N-(3-((2-oxooxazolidin-3-yl)methyl)phenyl)-4-propylbenzenesulfonamide]	C (C is inhibition from 10% to 20%)	–
CCCc1ccc(S(=O)(=O)Nc2ccc(Cn3cccn3)cc2)cc1 [Compound A-111, N-(4-((1H-pyrazol-1-yl)methyl)phenyl)-4-propylbenzenesulfonamide]	D (D is inhibition of 0% to 10%)	–
CCCc1ccc(S(=O)(=O)Nc2ccccc2Cn2cncn2)cc1 [Compound A-113, N-(2-((1H-1,2,4-triazol-1-yl)methyl)phenyl)-4-propylbenzenesulfonamide]	D (D is inhibition of 0% to 10%)	–
O=S(=O)(c1ccc(-c2ccccc2)cc1)N1CCc2ccccc21 [Compound A-114]	D (D is inhibition of 0% to 10%)	–
CCCc1ccc(S(=O)(=O)Nc2ccc3c(c2)CCN3C(C)=O)cc1 [Compound A-115, N-(1-acetylindolin-5-yl)-4-propylbenzenesulfonamide]	A (A is inhibition above 30%)	–
CCN1CCCC(NS(=O)(=O)c2ccc(-c3ccccc3)cc2)C1 (centres unmarked) [Compound A-117, N-(1-ethylpiperidin-3-yl)-[1,1′-biphenyl]-4-sulfonamide]	D (D is inhibition of 0% to 10%)	–
CCCC(=O)Nc1cccc(NS(=O)(=O)c2ccc(CCC)cc2)c1C [Compound A-118, N-(2-methyl-3-((4-propylphenyl)sulfonamido)phenyl)butyramide]	D (D is inhibition of 0% to 10%)	–
CCCc1ccc(S(=O)(=O)Nc2ccc(Cl)c(NC(C)=O)c2)cc1 [Compound A-119, N-(2-chloro-5-((4-propylphenyl)sulfonamido)phenyl)acetamide]	D (D is inhibition of 0% to 10%)	–
CCCc1ccc(S(=O)(=O)Nc2ccc(-c3nc(C)cc(=O)[nH]3)cc2)cc1 [Compound A-120, N-(4-(4-methyl-6-oxo-1,6-dihydropyrimidin-2-yl)phenyl)-4-propylbenzenesulfonamide]	B (B is inhibition from 20% to 30%)	–
CCCc1ccc(S(=O)(=O)Nc2cc(Cl)ccc2-n2cncn2)cc1 [Compound A-122, N-(5-chloro-2-(1H-1,2,4-triazol-1-yl)phenyl)-4-propylbenzenesulfonamide]	C (C is inhibition from 10% to 20%)	–
CSc1nnc(C(C)(C)C)c(=O)n1N [None (metribuzin only), metribuzin, reference compound]	–	pest or weed control at 100 g/ha ([2]; 168 h, read-out: Pre-Emergence Amaranthus Kill Percentage, Assessed 7 DAT, Metribuzin rate 50 g/ha): 0%; pest or weed control at 100 g/ha ([2]; 168 h, read-out: Pre-Emergence Amaranthus Kill Percentage, Assessed 7 DAT, Metribuzin rate 100 g/ha): 15.2%; pest or weed control at 100 g/ha ([2]; 168 h, read-out: Pre-Emergence Amaranthus Kill Percentage, Assessed 7 DAT, Metribuzin rate 200 g/ha): 60.9%; pest or weed control at 100 g/ha ([2]; 336 h, read-out: Pre-Emergence Amaranthus Kill Percentage, Assessed 14 DAT, Metribuzin rate 50 g/ha): 7.7%; pest or weed control at 100 g/ha ([2]; 336 h, read-out: Pre-Emergence Amaranthus Kill Percentage, Assessed 14 DAT, Metribuzin rate 100 g/ha): 38.3%; pest or weed control at 100 g/ha ([2]; 336 h, read-out: Pre-Emergence Amaranthus Kill Percentage, Assessed 14 DAT, Metribuzin rate 200 g/ha): 74%

— patent US20250275539A1, “APYRASE INHIBITORS” (Texas Crop Science, Inc., priority 2024, published 2025)
